Laboratory results published in patent US20160304957A1, “TREATMENT AND MODULATION OF GENE EXPRESSION AND SKIN AGING” (DSM NUTRITIONAL PRODUCTS LTD., priority 2006, published 2016).

Columns and labels:
Assay type in all cases: cell-based, human
[1] = test system: MMP-1; assay: ELISA of MMP-1 release into cell culture supernatant of HaCaT cells; conditions: 1, 10, or 100 nM RA; unpublished observations
Experimental: HaCaT cells were supplemented with 0.5, 1.5, or 3 μM β-carotene for 2 days prior to UVA (270 kJ/m^2) irradiation. MMP-1 and TIMP-1 secretion 24 hours after irradiation was analyzed by ELISA. Each condition was represented by three replicates in the experiment. Values are means±standard error.
Release of MMP-1, and TIMP-1 into cell culture supernatant was determined by ELISA at 24 hours after irradiation. MMP-1 and TIMP-1 release was measured using MMP-1 and TIMP ELISA from CALBIOCHEM (San Diego, Calif., USA). The ELISAs were performed according to the manufacturer's instructions.

[2] = test system: MMP-3; assay: QRT-PCR gene expression in HaCaT cells with or without UVA
Experimental: (§1) HaCaT cells were obtained from Prof. Fusenig, German Cancer Research Centre, Heidelberg. […] The accuracy of cell counting was approximately 99%.
(§2) On day 3 of the experiment, cells were washed six times with Ca/Mg-free PBS containing 2% BSA, and then irradiated with light with a Hönle sun lamp Sol 500 (Dr. Hönle, Plannegg, Germany) at a dose of 270 kJ/m^2 in Ca/Mg-free PBS (2 hour exposure time at […]). The experimental schedule was chosen because the cells had optimal UVA sensitivity after 48 hours in culture. […] Confluent cultures were much less sensitive to irradiation.
(§3) After irradiation, the cells were supplied with fresh β-carotene-containing serum-free medium and kept in the incubator at 37° C., 5% CO2 until harvest of the samples. In experiments in which the half-life of ^1O2 was prolonged by D2O to enhance its effect, PBS was prepared in D2O, instead of in H2O, as it was done for the standard conditions described above. Cells were washed twice in D2O-PBS prior to irradiation in D2O-PBS. After irradiation, cells were maintained with fresh β-carotene-containing serum-free medium. Sham controls were treated in an identical manner, by placing them under the solar simulator but shielded from light.
(§4) Total RNA was isolated by using Trizol™ (Invitrogen, Basel, Switzerland) according to the instructions of the manufacturer. Random-primed cDNA was synthesized using the Superscript pre-amplification system for first strand cDNA synthesis (Invitrogen).
(§5) cDNA corresponding to 10 ng total RNA was used as template to quantify the relative RNA expression of the genes of interest by TaqMan® real time PCR.
(§6) The PCR analyses were carried out in triplicate and in a multiplex setup, using 18S rRNA as a calibrator gene. The rRNA primers were used at a final concentration of 50 nM, the probe at 100 nM. For quantification of the genes of interest, the primer concentrations were optimized for sensitivity of template detection. […] PCR reactions were carried out for 40 cycles of 95° C. for 15 seconds and 60° C. for 1 minute in an ABI7700 (Applied Biosystems, Rotkreuz, Switzerland). Regulation of gene expression was calculated as described in user bulletin #2 provided by the manufacturer. A threshold cycle (“CT”) is the first PCR cycle in which an amplification signal is detected. Expression levels are given as δCT values. The δCT value describes the level of gene expression as the average PCR cycle, in which the gene of interest was detected first (CT value), subtracted by the CT value of the calibrator gene 18S rRNA (CTgene of interest−CTcalibrating gene), 18S rRNA served as a measure for the amount of template in the reaction. Routinely, 18S rRNA was detected between PCR cycle 12 and 13 (SE=standard error) A low δCT corresponds to a high mRNA level.

[3] = test system: MMP-1; assay: as above
Experimental: as §1, §2, §3, §4, §5, §6

[4] = test system: MMP-10; assay: as above
Experimental: as §1, §2, §3, §4, §5, §6

[5] = test system: TIMP-1; assay: as above; conditions: vitamin E 50 μM
Experimental: as §1
Vitamin E (RRR-α-tocopherol; DSM Nutritional Products, Kaiseraugst, Switzerland) stock solutions and vitamin E-containing media were prepared as described for β-carotene-containing solutions, except that vitamin E was dissolved in ethanol. In experiments addressing the vitamin E effect, vitamin E was used in a final concentration of 50 μM. Again, the solvent concentration was kept constant at 0.03% ethanol for all conditions.
On day 3 of the experiment, cells were washed six times with Ca/Mg-free PBS containing 2% BSA, and then irradiated with light with a Hönle sun lamp Sol 500 (Dr. Hönle, Plannegg, Germany) at a dose of 270 kJ/m^2 in Ca/Mg-free PBS (2 hour exposure time at […]). The experimental schedule was chosen because the cells had optimal UVA sensitivity after 48 hours in culture. […] Confluent cultures were much less sensitive to irradiation. […]
as §5
The PCR analyses were carried out in triplicate and in a multiplex setup, using 18S rRNA as a calibrator gene. […] For quantification of the genes of interest, the primer concentrations were optimized for sensitivity of template detection. […] Regulation of gene expression was calculated as described in user bulletin #2 provided by the manufacturer. A threshold cycle (“CT”) is the first PCR cycle in which an amplification signal is detected. […] The δCT value describes the level of gene expression as the average PCR cycle, in which the gene of interest was detected first (CT value), subtracted by the CT value of the calibrator gene 18S rRNA (CTgene of interest−CTcalibrating gene), 18S rRNA served as a measure for the amount of template in the reaction. Routinely, 18S rRNA was detected between PCR cycle 12 and 13 (SE=standard error) A low δCT corresponds to a high mRNA level.

[6] = vitamin E 50 μM with β-carotene 1.5 μM

SMILES | UVA-induced MMP-1 secretion [1] | cooperation with β-carotene in reducing UVA-induction of MMP-3 [2, 6] | MMP-3 expression ([2]; vitamin E alone, 50 μM) | cooperation with β-carotene in reducing UVA-induction of MMP-1 [3, 6] | MMP-1 expression ([3]; vitamin E alone, 50 μM) | cooperation with β-carotene in reducing UVA-induction of MMP-10 [4, 6] | MMP-10 expression ([4]; vitamin E alone, 50 μM) | UVA-suppressed TIMP-1 expression [5]
CC1=C(/C=C/C(C)=C/C=C/C(C)=C/C(=O)O)C(C)(C)CCC1 [RA, retinoic acid] | no effect |  |  |  |  |  |  | 
Cc1c(C)c2c(c(C)c1O)CC[C@@](C)(CCC[C@H](C)CCC[C@H](C)CCCC(C)C)O2 [vitamin E, RRR-α-tocopherol] |  | did not cooperate | no effect | did not cooperate | no effect | did not cooperate | no effect | restored
